# Experimental data: US4992292A, “Tris-hydroxymethyl alkane dicarboxylate extended esters as low calorie fat mimetics” (Nabisco Brands, Inc., priority 1990, dated 1991)
# Tests used:
# pancreatic lipase = details: cited from earlier work
# [1] = rats fed ad libitum; cited from earlier work
# [2] = in vivo animal feeding study for caloric availability; design: species or system Sprague-Dawley rats; details: rats, diet of 50% fort and 21% test compound, 14 days; from weight gain and corn oil base line data
# Excerpt: This example illustrates how the novel fat mimetics of this invention are screened for caloric availability by a carefully controlled in vivo animal feeding study.
# An experimental relationship between total calories ingested and animal body weight gain is established by monitoring the body weight gain associated with consumption of a nutritionally balanced diet containing varying concentrations of a reference substance such as corn oil which has a known caloric availabilty. Correlations between total calories ingested and body weight gain are excellent (r=0.99).
# Caloric availability of an unknown substance is evaluated by substituting a specific weight of the unknown substance for the reference substance and observing the body weight gain. The gain in body weight is equated to a total number of calories using the correlation previously established for the reference data. The estimated number of calories ingested are divided by the weight of unknown substance to give the apparent calories per gram for the unknown substance. Generally speaking, in these bioavailability studies, the degree of perianal pelt soiling correlates with reduced bioavailability.
# The test animals are six-week-old male Sprague-Dawley rats obtained from the Portage, Michigan facility of the Charles River Laboratories, Inc. After acclimation for 15 days, the test duration is I4 days. […]
# [3] = rat, in vivo; cited from earlier work
molecule,measurement,setting,value
CCCCCCCC(=O)OCC(COC(=O)CCCCCCC)(COC(=O)CCCCCCC)COC(=O)CCCCCCC [pentaerythritol tetracaprylate],hydrolysis by the enzyme pancreatic lipase,pancreatic lipase,"not attacked, hydrolyzed"
same,food consumption versus control animals on a normal diet,[1],consumed more than control animals
"CCCCCCCC/C=C\CCCCCCCC(=O)OCC(C)(COC(=O)CCCCCCC/C=C\CCCCCCCC)COC(=O)CCCCCCC/C=C\CCCCCCCC [Example 1, 1,1,1-Tris hydroxymethylethane trioleate]",caloric availability upon being metabolized,[2],about 3.3 kcal/gram
corn oil,caloric availability of reference,[3],9.0 calories/gram
